Where two headings read alike, the source gives them in different places. Blank lines part the entries; values can stand above or below the compound they belong to.
Experiments:
P97 = P97 (Homo sapiens, UniProt P55072); assay: P97 Biomolgreen ATPase assay, 200 μM ATP; format: biochemical
Source text: The following Table IV provides relevant results. The compound number in Table IV correlates to the numbered compounds in Table III.

Molt4 = assay: Anti-proliferative activity, Molt4; format: cell-based; details: Homo sapiens, MOLT-4, blood cancer, read-out: Anti-proliferative activity (μM) of NMS-873
SW620 = assay: Anti-proliferative activity, SW620; format: cell-based; details: Homo sapiens, SW-620, Colon, read-out: Anti-proliferative activity (μM) of NMS-873
CCRF-CEM = assay: Anti-proliferative activity, CCRF-CEM; format: cell-based; details: Homo sapiens, blood cancer, read-out: Anti-proliferative activity (μM) of NMS-873
BxPC-3 = assay: Anti-proliferative activity, BxPC-3; format: cell-based; details: Homo sapiens, Pancreatic cancers, read-out: Anti-proliferative activity (μM) of NMS-873
Method: (§1) Cells were seeded on a 384-well solid white plate (5,000 cells/well). Cells were transfected with luciferase siRNA or p97 siRNA (10 nM) for 48 h or treated with compounds for the indicated amount of time. Caspase-3/7 Glo, caspase-6 Glo, caspase-8 Glo, or caspase-9 Glo (Promega) was added into each well and mixed by shaking at 500 rpm for 1 min. Luminescence signal was determined after incubation at room temperature for 1 h. Cellular viability was determined with Cell-Titer-Glo reagent (Promega). […] IC50 values were calculated from fitting the percentage of luminescence signal normalized to DMSO treated cells).

RPMI8226 = assay: Anti-proliferative activity, RPMI8226; format: cell-based; details: Homo sapiens, RPMI-8226, Multiple Myeloma, read-out: Anti-proliferative activity (μM) of NMS-873
SKMel5 (BRAFV600E) = assay: Anti-proliferative activity, SKMel5; format: cell-based; details: Homo sapiens, SK-MEL-5, skin cancer, read-out: Anti-proliferative activity (μM) of NMS-873
Method: as §1

LoxIMVI (BRAFV600E) = assay: Anti-proliferative activity, LoxIMVI; format: cell-based; details: Homo sapiens, LOX IMVI, skin cancer, read-out: Anti-proliferative activity (μM) of NMS-873
Method: as §1

WM3918 (BRAF/NRAS WT) = assay: Anti-proliferative activity, WM3918; format: cell-based; details: skin cancer, read-out: Anti-proliferative activity (μM) of NMS-873
Method: as §1

A375 (BRAFV600E) = assay: Anti-proliferative activity, A375; format: cell-based; details: Homo sapiens, A-375, skin cancer, read-out: Anti-proliferative activity (μM) of NMS-873
HCT15 = assay: Anti-proliferative activity, HCT15; format: cell-based; details: Homo sapiens, HCT-15, Colon, read-out: Anti-proliferative activity (μM) of NMS-873
Method: (§2) Cells were seeded on a 384-well solid white plate (5,000 cells/well). Cells were transfected with luciferase siRNA or p97 siRNA (10 nM) for 48 h or treated with compounds for the indicated amount of time. […] Cellular viability was determined with Cell-Titer-Glo reagent (Promega). […] IC50 values were calculated from fitting the percentage of luminescence signal normalized to DMSO treated cells).

MDA-MB-231 = assay: Anti-proliferative activity, MDA-MB-231; format: cell-based; details: Homo sapiens, Breast, read-out: Anti-proliferative activity (μM) of NMS-873
Method: as §2

SKMel2 (NRASQ61R) = assay: Anti-proliferative activity, SKMel2; format: cell-based; details: Homo sapiens, SK-MEL-2, skin cancer, read-out: Anti-proliferative activity (μM) of NMS-873
Method: as §1

A549 = assay: Anti-proliferative activity, A549; format: cell-based; details: Homo sapiens, Lung Cancer, read-out: Anti-proliferative activity (μM) of NMS-873
Method: as §1

MCF-7 = assay: Anti-proliferative activity, MCF-7; format: cell-based; details: Homo sapiens, MCF7, Breast, read-out: Anti-proliferative activity (μM) of NMS-873
Method: as §2

HCT116 = assay: Anti-proliferative activity, HCT116; format: cell-based; details: Homo sapiens, HCT-116, Colon, read-out: Anti-proliferative activity (μM) of NMS-873
Method: as §2

PANC-1 = assay: Anti-proliferative activity, PANC-1; format: cell-based; details: Homo sapiens, Pancreatic cancers, read-out: Anti-proliferative activity (μM) of NMS-873
Method: as §1

MDA-MB-468 = assay: Anti-proliferative activity, MDA-MB-468; format: cell-based; details: Homo sapiens, Breast, read-out: Anti-proliferative activity (μM) of NMS-873
Method: as §2

[1] = read-out: P97 Biomolgreen, IC50

Sequence of P97 (P55072 whole entry): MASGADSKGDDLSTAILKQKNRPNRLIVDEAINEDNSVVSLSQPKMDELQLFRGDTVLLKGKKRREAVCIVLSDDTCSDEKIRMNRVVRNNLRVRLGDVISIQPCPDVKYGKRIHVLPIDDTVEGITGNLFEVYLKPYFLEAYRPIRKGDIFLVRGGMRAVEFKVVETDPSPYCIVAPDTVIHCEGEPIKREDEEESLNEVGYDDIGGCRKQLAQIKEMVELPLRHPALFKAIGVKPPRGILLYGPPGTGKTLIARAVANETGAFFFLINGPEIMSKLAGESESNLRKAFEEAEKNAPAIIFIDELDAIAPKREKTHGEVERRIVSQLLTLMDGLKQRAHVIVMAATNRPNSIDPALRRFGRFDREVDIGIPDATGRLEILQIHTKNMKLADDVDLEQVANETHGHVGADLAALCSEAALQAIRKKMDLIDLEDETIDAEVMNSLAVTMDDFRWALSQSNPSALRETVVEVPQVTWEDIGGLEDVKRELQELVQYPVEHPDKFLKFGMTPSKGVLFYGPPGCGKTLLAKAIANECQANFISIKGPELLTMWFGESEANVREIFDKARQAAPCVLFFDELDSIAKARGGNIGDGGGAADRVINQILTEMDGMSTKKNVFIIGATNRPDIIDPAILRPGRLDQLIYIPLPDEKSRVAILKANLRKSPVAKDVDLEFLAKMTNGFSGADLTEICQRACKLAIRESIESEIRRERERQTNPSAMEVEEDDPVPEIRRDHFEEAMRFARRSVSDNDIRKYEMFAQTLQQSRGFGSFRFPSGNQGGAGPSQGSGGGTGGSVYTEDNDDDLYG

SMILES: N#Cc1ccc(C#CCOCc2nnc(SC3CCCC3)n2-c2cccnc2)cc1 [Compound 56]
- IC50 (P97): > 6.7 µM

SMILES: Cc1cc(OCc2nnc(SC3C=CCCC3)n2-c2cccnc2)ccc1C#CCOC(=O)NCCN1CCN(C(C)C)CC1 (stereo not shown) [Compound 71]
- IC50 (P97): 0.026 µM

SMILES: OCC#Cc1ccc(OCc2nnc(SC3C=CCCC3)n2-c2cccnc2)cc1 (stereo not shown) [Compound 91]
- IC50 (P97; [1]): 0.032 µM

SMILES: Cc1cc(OCc2nnc(SC3CCCC3)n2-c2cccnc2)ccc1C#CCOC(=O)NCCNC(=O)CC1C2CC3CC(C2)CC1C3 (stereo not shown) [Compound 110]
- IC50 (P97): 0.06 µM

SMILES: Cc1cc(OCc2nnc(SC3CCCC3)n2-c2cccnc2)ccc1-c1ccc(S(C)(=O)=O)cc1 [NMS-873]
- IC50 (Molt4): 0.92 µM
- IC50 (SW620): 2.6 µM
- IC50 (CCRF-CEM): 0.1 µM
- IC50 (BxPC-3): 2.5 µM
- IC50 (RPMI8226): 0.08 µM
- IC50 (SKMel5 (BRAFV600E)): 1.95 µM
- IC50 (LoxIMVI (BRAFV600E)): 0.65 µM
- IC50 (WM3918 (BRAF/NRAS WT)): 2.35 µM
- IC50 (A375 (BRAFV600E)): 2.27 µM
- IC50 (HCT15): 2.1 µM
- IC50 (MDA-MB-231): 2.95 µM
- IC50 (SKMel2 (NRASQ61R)): 3.04 µM
- IC50 (A549): 2.2 µM
- IC50 (MCF-7): 3.07 µM
- IC50 (HCT116): 1.2 µM
- IC50 (PANC-1): 5 µM
- IC50 (MDA-MB-468): 1.36 µM

SMILES: CCC(=O)NCC#Cc1ccc(OCc2nnc(SC[C@@]3(C)CO3)n2-c2cccnc2)cc1C [Compound 130]
- P97 Biomolgreen; 200 μM ATP; IC50 (μM) (P97): Not active

SMILES: Cc1cc(OCc2nnc(SC3CCCC3)n2-c2cccnc2)ccc1C#CCOC(=O)NCCOCCNC(=O)CC1C2CC3CC(C2)CC1C3 (stereo not shown) [Compound 111]
- IC50 (P97): 0.03 µM

SMILES: CN1CCC(NC(=O)OCC#Cc2ccc(OCc3nnc(SC4C=CCCC4)n3-c3cccnc3)cc2C#N)CC1 (stereo not shown) [Compound 121]
- IC50 (P97; [1]): 0.03 µM

SMILES: C#Cc1ccc(OCc2nnc(CC3CC3)n2-c2cccnc2)cc1C [Compound 55]
- IC50 (P97; [1]): 5.3 µM

The remaining lines, values ahead:

- IC50 (P97): 0.015 µM
SMILES: Cc1cc(OCc2nnc(SC3C=CCCC3)n2-c2cccnc2)ccc1C#CCOC(=O)N1CCN(C)CC1 (stereo not shown) [Compound 108]

- IC50 (P97): 0.13 µM
SMILES: [2H]C1([2H])C([2H])([2H])C([2H])([2H])C([2H])(Sc2nnc(COc3ccc(C#CC(C)OC(=O)NCCN4CCN(C(C)C)CC4)c(C)c3)n2-c2cccnc2)C1([2H])[2H] (stereo not shown) [Compound 42]

- IC50 (P97): 0.99 µM
SMILES: [2H]C1([2H])C([2H])([2H])C([2H])([2H])C([2H])(Sc2nnc(COc3ccc(C#CCO)c(C)c3)n2-c2cccnc2)C1([2H])[2H] [Compound 117]

- IC50 (P97): 0.029 µM
SMILES: COC(C)NCC#Cc1ccc(OCc2nnc(SC3CCCC3)n2-c2cccnc2)cc1C (stereo not shown) [Compound 12]

- P97 Biomolgreen; 200 μM ATP; IC50 (μM) (P97): Not active
SMILES: CCC(=O)NCC#Cc1ccc(OCc2nnc(SCC3CO3)n2-c2cccnc2)cc1C (stereo not shown) [Compound 129]

- IC50 (P97): 0.025 µM
SMILES: Cc1cc(OCc2nnc(SC3C=CCCC3)n2-c2cccnc2)ccc1C#CCOC(=O)NC1CCN(C)CC1 (stereo not shown) [Compound 75]

- IC50 (P97): 0.26 µM
SMILES: Cc1cc(OCc2nnc(SC3CCCC3)n2-c2cccnc2)ccc1C#CCNC(=O)OC(C)(C)C [Compound 49]

- IC50 (P97; [1]): 0.11 µM
SMILES: Cc1cc(OCc2nnc(SC3C=CCCC3)n2-c2cccnc2)ccc1C#CCOC1CCCCO1 (stereo not shown) [Compound 57]

- IC50 (P97): 0.067 µM
SMILES: [2H]C1([2H])C([2H])([2H])C([2H])([2H])C([2H])(Sc2nnc(COc3ccc(C#CCNC4CCN(C)CC4)c(C)c3)n2-c2cccnc2)C1([2H])[2H] [Compound 96]

From US20220175754A1, “P97 INHIBITORS FOR TREATING CANCER AND NEURODEGENERATIVE DISORDERS” (Lundquist Institute for Biomedical Innovation at …, priority 2018, published 2022)
